Values quoted from earlier work, collected in US8513439B2, “Antidepressant oral pharmaceutical compositions” (Wockhardt Limited, priority 2005, dated 2013).

Tests used:
adrenergic receptors = conditions: in vitro
cholinergic receptors = conditions: in vitro
histaminergic receptors = conditions: in vitro
[1] = in vivo
dopaminergic receptors = conditions: in vitro

Structure (SMILES): CNCC[C@H](Oc1cccc2ccccc12)c1cccs1 [Duloxetine, (S)—N-methyl-3-(1-naphthyloxy)-3-(2-thienyl)propan-1-amine]
- affinity for adrenergic receptors (adrenergic receptors): no significant affinity
- affinity for cholinergic receptors (cholinergic receptors): no significant affinity
- inhibition of monoamine oxidase (MAO) (monoamine oxidase (MAO)): does not inhibit
- affinity for histaminergic receptors (histaminergic receptors): no significant affinity
- enzymes metabolizing to inactive metabolites in the liver [1]: CYP1A2 and CYP2D6
- protein bound [1]: > 90%
- affinity for dopaminergic receptors (dopaminergic receptors): no significant affinity
- dosage hydrolyzed to 1-naphthol (pH of 1.0, within one hour): 50%
- dosage degraded to 1-Naphthol (pH of 2.0, in one hour): 10%
- time for 10% degradation (pH of 4.0): up to 63 hours
